Assay results reported in patent US11000033B2, “Ketone or oxime compound, and herbicide” (NISSAN CHEMICAL CORPORATION, priority 2014, dated 2021).

Tests used:
Format in all cases: in vivo
[1] = test system: Echinochloa oryzacola Vasing.; test: Test Example 1: herbicidal activity, application before weed generation in submerged conditions (symbol A); settings: application herbicide amount 320 g/ha
In short: (§1)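 0–5 visual score, 3 wk post-application. Submerged pots, alluvial soil, water 4 cm; seeds sown mixed, rice at 2.5 leaves transplanted. Emulsion diluted to predetermined dose, applied to water surface at sowing. 25–30 °C greenhouse.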

[2] = test system: Scirpus juncoides; test: Test Example 1: herbicidal activity, application before weed generation in submerged conditions (symbol B); settings: application herbicide amount 320 g/ha
In short: as §1

[3] = test system: Echinochloa crus-galli var. crus-galli; test: Test Example 3: herbicidal effect by foliage application, Wagner pot (symbol H); settings: application herbicide amount 320 g/ha
In short: (§2)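 Steps: fill pot with alluvial soil; add water to 0.1–0.5 cm depth; sow weed and rice seed; grow 14 days at 25–30 °C; spray diluted emulsion over the leaves; rate effect after 3 weeks.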

[4] = test system: Cyperus difformis; test: Test Example 3: herbicidal effect by foliage application, Wagner pot (symbol E); settings: application herbicide amount 320 g/ha
In short: as §2

[5] = test system: Setaria viridis; test: Test Example 4: herbicidal effect by soil treatment (symbol G); settings: application herbicide amount 320 g/ha
In short: (§3)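 Seeds were sown in sterilized diluvial soil, covered with about 1.5 cm of soil, and the soil surface was sprayed with a water-diluted emulsion of the compound at a predetermined rate. Plants grew in a greenhouse at 25° C. to 30° C.; effects were scored visually 3 weeks after application.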

[6] = test system: Alopecurus myosuroides; test: Test Example 4: herbicidal effect by soil treatment (symbol J); settings: application herbicide amount 320 g/ha
In short: as §3

[7] = test system: Galium spurium; test: Test Example 4: herbicidal effect by soil treatment (symbol Q); settings: application herbicide amount 320 g/ha
In short: as §3

[8] = test system: wheat; test: Test Example 4: effect on crop by soil treatment (symbol e); settings: application herbicide amount 320 g/ha
In short: (§4)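 Crop seeds, among them rice, wheat, beet and rapeseed, were sown in sterilized diluvial soil and covered with about 1.5 cm of soil. Boxes were kept in a greenhouse at 25° C. to 30° C. for plant growth.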

[9] = test system: rapeseed; test: Test Example 4: effect on crop by soil treatment (symbol g); settings: application herbicide amount 320 g/ha
In short: as §4

[10] = test system: Digitaria ciliaris; test: Test Example 5: herbicidal effect by foliage application, plastic box (symbol F); settings: 320 g/ha, 3 weeks after application
In short: (§5)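 Visual herbicidal score, taken three weeks post-application, of seedlings sprayed on the foliage with water-diluted emulsion at a predetermined amount; plants were 14 days old, greenhouse-raised at 25° C. to 30° C.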

[11] = test system: Alopecurus myosuroides; test: Test Example 5: herbicidal effect by foliage application, plastic box (symbol J); settings: 320 g/ha, 3 weeks after application
In short: as §5

[12] = test system: Apera spica-venti; test: Test Example 5: herbicidal effect by foliage application, plastic box (symbol L); settings: 320 g/ha, 3 weeks after application
In short: as §5

[13] = test system: Abutilon theophrasti; test: Test Example 5: herbicidal effect by foliage application, plastic box (symbol M); settings: 320 g/ha, 3 weeks after application
In short: as §5

[14] = test system: Amaranthus retroflexus; test: Test Example 5: herbicidal effect by foliage application, plastic box (symbol N); settings: 320 g/ha, 3 weeks after application
In short: as §5

[15] = test system: Stellaria media; test: Test Example 5: herbicidal effect by foliage application, plastic box (symbol P); settings: 320 g/ha, 3 weeks after application
In short: as §5

[16] = test system: Galium spurium; test: Test Example 5: herbicidal effect by foliage application, plastic box (symbol Q); settings: 320 g/ha, 3 weeks after application
In short: as §5

[17] = test system: beet; test: Test Example 5: effect on crop by foliage application, plastic box (symbol f); settings: 320 g/ha, 3 weeks after application
In short: (§6)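 In a plastic box 7 cm deep filled with sterilized diluvial soil, seeds of crops and weeds such as Digitaria ciliaris, Avena fatua and Amaranthus retroflexus are sown in spots and covered with about 1.5 cm of soil before greenhouse growth at 25–30° C.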

[18] = test system: rapeseed; test: Test Example 5: effect on crop by foliage application, plastic box (symbol g); settings: 320 g/ha, 3 weeks after application
In short: as §6

SMILES | Herbicidal effect grade, A: Echinochloa oryzacola Vasing. [1] | Herbicidal effect grade, B: Scirpus juncoides [2] | herbicidal effect on H (Echinochloa crus-galli var. crus-galli), grade 0-5 [3] | herbicidal effect on E, grade 0-5 [4] | Herbicidal effect grade, G: Setaria viridis [5] | Herbicidal effect grade, J: Alopecurus myosuroides [6] | Herbicidal effect grade, Q: Galium spurium [7] | Effect on crop grade, e: wheat [8] | Effect on crop grade, g: rapeseed [9] | F: Digitaria ciliaris, herbicidal effect (criteria of Test Example 1) [10] | J: Alopecurus myosuroides, herbicidal effect (criteria of Test Example 1) [11] | L: Apera spica-venti, herbicidal effect (criteria of Test Example 1) [12] | M: Abutilon theophrasti, herbicidal effect (criteria of Test Example 1) [13] | N: Amaranthus retroflexus, herbicidal effect (criteria of Test Example 1) [14] | P: Stellaria media, herbicidal effect (criteria of Test Example 1) [15] | Q: Galium spurium, herbicidal effect (criteria of Test Example 1) [16] | f: beet, effect on crop (criteria of Test Example 1) [17] | g: rapeseed, effect on crop (criteria of Test Example 1) [18]
CON=C(C)C(C)C1CC(O)=C(c2c(C)cc(Br)cc2OC)C1=O (centres unmarked) [6-113] | 4 (Herbicidal ratio of 70% or higher and lower than 90%) | 0 (Herbicidal ratio of 5% or lower (almost no effect)) | 5 (Herbicidal ratio of 90% or more (almost completely withered)) | 5 (Herbicidal ratio of 90% or more (almost completely withered)) | 5 (Herbicidal ratio of 90% or more (almost completely withered)) | 5 (Herbicidal ratio of 90% or more (almost completely withered)) | 0 (Herbicidal ratio of 5% or lower (almost no effect)) | 0 (Herbicidal ratio of 5% or lower (almost no effect)) | 1 (Herbicidal ratio of 5% or higher and lower than 20%) | 5 (Herbicidal ratio of 90% or more (almost completely withered)) | 5 (Herbicidal ratio of 90% or more (almost completely withered)) | 5 (Herbicidal ratio of 90% or more (almost completely withered)) | 0 (Herbicidal ratio of 5% or lower (almost no effect)) | 0 (Herbicidal ratio of 5% or lower (almost no effect)) | 0 (Herbicidal ratio of 5% or lower (almost no effect)) | 0 (Herbicidal ratio of 5% or lower (almost no effect)) | 0 (Herbicidal ratio of 5% or lower (almost no effect)) | 4 (Herbicidal ratio of 70% or higher and lower than 90%)
CON=C(C)CC1CC(OC(=O)N2CCOCC2)=C(c2c(C)cc(C)cc2OC)C1=O (centres unmarked) [6-094] | 5 (Herbicidal ratio of 90% or more (almost completely withered)) | 5 (Herbicidal ratio of 90% or more (almost completely withered)) | 5 (Herbicidal ratio of 90% or more (almost completely withered)) | 5 (Herbicidal ratio of 90% or more (almost completely withered)) | 5 (Herbicidal ratio of 90% or more (almost completely withered)) | 5 (Herbicidal ratio of 90% or more (almost completely withered)) | 0 (Herbicidal ratio of 5% or lower (almost no effect)) | 0 (Herbicidal ratio of 5% or lower (almost no effect)) | 4 (Herbicidal ratio of 70% or higher and lower than 90%) | 5 (Herbicidal ratio of 90% or more (almost completely withered)) | 5 (Herbicidal ratio of 90% or more (almost completely withered)) | 5 (Herbicidal ratio of 90% or more (almost completely withered)) | 4 (Herbicidal ratio of 70% or higher and lower than 90%) | 0 (Herbicidal ratio of 5% or lower (almost no effect)) | 3 (Herbicidal ratio of 40% or higher and lower than 70%) | 5 (Herbicidal ratio of 90% or more (almost completely withered)) | – | 4 (Herbicidal ratio of 70% or higher and lower than 90%)
CON=C(C)CC1CC(OS(=O)(=O)N(C)C)=C(c2c(C)cc(C)cc2OC)C1=O (centres unmarked) [6-095] | 5 (Herbicidal ratio of 90% or more (almost completely withered)) | 4 (Herbicidal ratio of 70% or higher and lower than 90%) | 5 (Herbicidal ratio of 90% or more (almost completely withered)) | 5 (Herbicidal ratio of 90% or more (almost completely withered)) | 5 (Herbicidal ratio of 90% or more (almost completely withered)) | 5 (Herbicidal ratio of 90% or more (almost completely withered)) | 0 (Herbicidal ratio of 5% or lower (almost no effect)) | 2 (Herbicidal ratio of 20% or higher and lower than 40%) | 4 (Herbicidal ratio of 70% or higher and lower than 90%) | 5 (Herbicidal ratio of 90% or more (almost completely withered)) | 5 (Herbicidal ratio of 90% or more (almost completely withered)) | 5 (Herbicidal ratio of 90% or more (almost completely withered)) | 4 (Herbicidal ratio of 70% or higher and lower than 90%) | 0 (Herbicidal ratio of 5% or lower (almost no effect)) | 1 (Herbicidal ratio of 5% or higher and lower than 20%) | 0 (Herbicidal ratio of 5% or lower (almost no effect)) | 0 (Herbicidal ratio of 5% or lower (almost no effect)) | 4 (Herbicidal ratio of 70% or higher and lower than 90%)
CON=C(C)CC1CC(O)=C(c2c(C)cc(-c3ccc(Cl)cc3Cl)cc2C)C1=O (centres unmarked) [6-088] | 4 (Herbicidal ratio of 70% or higher and lower than 90%) | 1 (Herbicidal ratio of 5% or higher and lower than 20%) | 5 (Herbicidal ratio of 90% or more (almost completely withered)) | 5 (Herbicidal ratio of 90% or more (almost completely withered)) | 5 (Herbicidal ratio of 90% or more (almost completely withered)) | 5 (Herbicidal ratio of 90% or more (almost completely withered)) | 4 (Herbicidal ratio of 70% or higher and lower than 90%) | 0 (Herbicidal ratio of 5% or lower (almost no effect)) | 3 (Herbicidal ratio of 40% or higher and lower than 70%) | 5 (Herbicidal ratio of 90% or more (almost completely withered)) | 5 (Herbicidal ratio of 90% or more (almost completely withered)) | 5 (Herbicidal ratio of 90% or more (almost completely withered)) | 3 (Herbicidal ratio of 40% or higher and lower than 70%) | 0 (Herbicidal ratio of 5% or lower (almost no effect)) | 4 (Herbicidal ratio of 70% or higher and lower than 90%) | 4 (Herbicidal ratio of 70% or higher and lower than 90%) | 0 (Herbicidal ratio of 5% or lower (almost no effect)) | 4 (Herbicidal ratio of 70% or higher and lower than 90%)
